Test results as given in PMC5515969, “Effects of 31 FDA approved small-molecule kinase inhibitors on isolated rat liver mitochondria” (Archives of Toxicology, 2016).
Where two headings read alike, the source gives them in different places.

How the values were obtained:
RCC II = target: T1, RCC II (Rattus norvegicus, UniProt P21913+Q641Z9+Q6PCT8+Q920L2); test: RCC II activity in submitochondrial particles; assay type: biochemical; set-up: key: activity relative to DMSO-treated controls (control set as 1 = 100%); conditions: relative to DMSO treated samples
T1 construct: Submitochondrial particles were prepared by subjecting the intact mitochondria to three successive freeze–thaw cycles; from tissue; host or cells: rat liver mitochondria, used as submitochondrial particles
T1 sequence (Q920L2 35-656): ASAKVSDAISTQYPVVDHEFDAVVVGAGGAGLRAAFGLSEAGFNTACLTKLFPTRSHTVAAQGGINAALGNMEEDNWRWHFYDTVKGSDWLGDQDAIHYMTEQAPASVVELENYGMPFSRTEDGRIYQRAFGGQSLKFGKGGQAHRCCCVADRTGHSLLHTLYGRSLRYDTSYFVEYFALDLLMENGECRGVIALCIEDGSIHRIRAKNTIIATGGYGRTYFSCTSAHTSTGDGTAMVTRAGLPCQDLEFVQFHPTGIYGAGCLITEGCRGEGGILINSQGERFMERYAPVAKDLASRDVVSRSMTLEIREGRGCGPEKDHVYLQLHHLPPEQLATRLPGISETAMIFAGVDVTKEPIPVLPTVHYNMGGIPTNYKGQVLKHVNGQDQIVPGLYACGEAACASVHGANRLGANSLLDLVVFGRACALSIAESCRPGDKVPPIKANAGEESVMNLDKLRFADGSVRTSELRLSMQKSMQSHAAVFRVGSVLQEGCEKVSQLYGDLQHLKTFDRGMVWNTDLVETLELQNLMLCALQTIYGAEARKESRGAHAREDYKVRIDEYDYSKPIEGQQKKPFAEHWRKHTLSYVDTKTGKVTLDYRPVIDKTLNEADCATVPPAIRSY
T1 sequence (P21913 31-282): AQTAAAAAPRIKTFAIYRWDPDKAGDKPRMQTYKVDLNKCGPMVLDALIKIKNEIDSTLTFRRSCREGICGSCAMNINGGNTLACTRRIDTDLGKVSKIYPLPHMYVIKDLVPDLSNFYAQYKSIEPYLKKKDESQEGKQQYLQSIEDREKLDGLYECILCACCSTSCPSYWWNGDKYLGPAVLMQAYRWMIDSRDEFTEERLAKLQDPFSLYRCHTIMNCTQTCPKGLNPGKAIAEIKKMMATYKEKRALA
T1 sequence (Q641Z9 1-169): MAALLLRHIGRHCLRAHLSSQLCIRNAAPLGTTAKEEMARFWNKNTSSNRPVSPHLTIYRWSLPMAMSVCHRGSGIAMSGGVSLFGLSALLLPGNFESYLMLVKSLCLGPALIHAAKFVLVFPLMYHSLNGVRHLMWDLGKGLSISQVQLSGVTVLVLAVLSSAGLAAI
T1 sequence (Q6PCT8 57-159): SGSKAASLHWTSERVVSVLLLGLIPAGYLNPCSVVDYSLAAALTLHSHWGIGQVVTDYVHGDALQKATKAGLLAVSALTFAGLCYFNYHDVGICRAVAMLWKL
Experimental: (§1) KIs were incubated with submitochondrial particles (1 mg/ml) for 15 min and then RCC I–V activities measured. […] The activities of DMSO-treated samples (controls) were set as 1. […] The difference between the activity from rotenone-containing buffer and rotenone-absent buffer was considered as RCC I activity. […] For measuring RCC I/V and II activity, the changes in absorbance at 340 and 600 nm, respectively, were determined every 1 min for 6 min. For measuring RCC III and RCC IV, the changes in absorbance at 550 nm were measured every 10 s for 2 min.

RCC III = RCC III activity in submitochondrial particles; assay type: biochemical, rat; set-up: key to RCC III at 100XCmax: activity relative to DMSO-treated controls (control set as 1 = 100%); conditions: for RCC activity III: 15 min, DMSO-treated = 100; for RCC III at 100XCmax: relative to DMSO treated samples
Experimental: as §1

RCC IV = RCC IV activity in submitochondrial particles; assay type: biochemical, rat; set-up: key to RCC IV at 50XCmax / RCC IV at 100XCmax: activity relative to DMSO-treated controls (control set as 1 = 100%); conditions: for RCC activity IV: 15 min, DMSO-treated = 100; for RCC IV at 50XCmax: relative to DMSO treated samples, in %
Experimental: as §1

RCC V = RCC V activity in submitochondrial particles; assay type: biochemical, rat; conditions: for RCC V at 5XCmax / RCC V at 50XCmax: relative to DMSO treated samples; for RCC activity V: 15 min, DMSO-treated = 100; on RCC V at 5XCmax: key: 0 indicates that the drug had no effects (negative)
Experimental: as §1

[1] = tested on: isolated rat liver mitochondria; test: Mitochondrial inner membrane potential (MMP), Rhodamine 123; assay type: biochemical; conditions: difference in signal between KI and DMSO treated samples at the end of experiments
Source text: Fig. 3 KI effects on mitochondrial inner membrane potential (MMP). […] In a, c, data are means and standard derivations from three separate experiments. *p < 0.05 as compared to DMSO-treated samples at the end of experiments. In b, data are means of two independent experiments

[2] = tested on: isolated rat liver mitochondria; test: Mitochondrial swelling (absorbance at 535 nm); assay type: biochemical; conditions: for Swelling 1XCmax / Swelling 2.5XCmax / Swelling 5XCmax / Swelling 10XCmax / Swelling 20XCmax / Swelling 30XCmax / Swelling 50XCmax / Swelling 100XCmax: difference in signal between KI and DMSO treated samples at the end of experiments; on Swelling 5XCmax: key: 0 indicates that the drug had no effects (negative)
[3] = tested on: isolated rat liver mitochondria; conditions: positive control alamethicin treated samples
[4] = set-up: method as in product labeling; conditions: ref product labeling, cited from earlier work
[5] = cited from earlier work
[6] = tested on: isolated rat liver mitochondria; test: Mitochondrial ROS production (CM-H2DCFDA); conditions: for ROS measured by CM-H2DCFDA at 1XCmax / ROS measured by CM-H2DCFDA at 2.5XCmax / ROS measured by CM-H2DCFDA at 5XCmax / ROS measured by CM-H2DCFDA at 10XCmax / ROS measured by CM-H2DCFDA at 20XCmax / ROS measured by CM-H2DCFDA at 30XCmax / ROS measured by CM-H2DCFDA at 50XCmax / ROS measured by CM-H2DCFDA at 100XCmax: DMSO treated samples set as 1
[7] = tested on: isolated rat liver mitochondria; test: Mitochondrial oxygen consumption (glutamate/malate or succinate driven, state 4 and state 3); assay type: biochemical; conditions: DMSO treated samples set as 1; on State 3 respiration driven by succinate at 10XCmax: key: 0 indicates that the drug had no effects (negative); on State 3 respiration driven by succinate at 1XCmax: key: 0 indicates that the drug had no effects (negative)
Experimental: Rats were anesthetized by an intraperitoneal injection of Nembutal and the liver perfused with PBS to remove the blood. The liver was then cut into small pieces and homogenized using a Dounce type homogenizer in the ice-cold isolation buffer (IB) containing 200 mM sucrose, 10 mM Tris-MOPS, 1 mM EGTA (pH 7.4). The sample was then centrifuged at 600g for 10 min. The supernatant was further centrifuged at 7500g for 10 min, and the pellets was washed once with the IB and centrifuged again at 7500g for 10 min to collect mitochondria. […] Before drug treatment, the protein concentration was adjusted to 1 mg/ml using appropriate buffer. […] Briefly, mitochondrial and cytosolic fractions from four different preparations using four rats were diluted using the Laemmli protein loading buffer and subject to SDS-PAGE with 4–20% gradient gels. The proteins were blotted to PVDF membranes and detected using antibodies against GAPDH, ATP5A, UQCRC2, SDHB, and NDUFB8.
The aliquoted stock solutions were kept for less than one month and each tube was used only once. The KIs were added to the mitochondria at 1:1000 dilutions. […] The Cmax data were from clinical trials which used FDA recommend dosages, route of administration, and duration. […] The final concentration of DMSO for drug treatment was always 0.1%, and control treatments were 0.1% DMSO.
Briefly, mitochondria were incubated with the KIs for 5 min, and then split evenly and loaded to the sample tubes of two Oxytherm systems (Hansatech Instruments Ltd), with one system used for measuring glutamate/malate driven respiration and the other succinate-driven respiration, both of which were defined as state 4 respiration. After 3 min, ADP was added to measure the maximal oxygen consumption rate, which was defined as state 3 respiration. […] The oxygen consumption rate of DMSO-treated samples (controls) was set as 1.

RCC I = RCC I activity in submitochondrial particles; assay type: biochemical, rat; set-up: key to RCC I at 10XCmax / RCC I at 100XCmax / RCC I at 50XCmax / RCC I at 30XCmax / RCC I at 20XCmax: activity relative to DMSO-treated controls (control set as 1 = 100%); conditions: 10XCmax; relative to DMSO treated samples
Experimental: as §1

[8] = cited from earlier work; remark: listed apart in the source

## C[C@@H](Oc1cc(-c2cnn(C3CCNCC3)c2)cnc1N)c1c(Cl)ccc(F)c1Cl [Crizotinib]
RCC II
  RCC II at 1.0XCmax: 0
  RCC II at 2.5XCmax: 0
  RCC II at 5XCmax: 0
  RCC II at 10XCmax: 0
  RCC II at 20XCmax: 0
  RCC II at 30XCmax: 0
  RCC II at 50XCmax: 0
  RCC II at 100XCmax: 0
RCC III; 20-fold Cmax
  RCC activity III: 99.67 ± 8.65 % of control
RCC III; 30-fold Cmax
  RCC activity III: 106.26 ± 5.79 % of control
RCC III; 50-fold Cmax
  RCC activity III: 98.02 ± 7.16 % of control
RCC III; 100-fold Cmax
  RCC activity III: 103.28 ± 2.85 % of control
RCC III
  RCC III at 100XCmax: 0
RCC IV; 20-fold Cmax
  RCC activity IV: 94.03 ± 9.67 % of control
RCC IV; 30-fold Cmax
  RCC activity IV: 96.65 ± 4.14 % of control
RCC IV; 50-fold Cmax
  RCC activity IV: 103.77 ± 5.67 % of control
RCC IV
  RCC IV at 50XCmax: 0
RCC IV; 100-fold Cmax
  RCC activity IV: 96.60 ± 8.40 % of control
RCC V
  RCC V at 5XCmax: 0
  RCC V at 50XCmax: 0
RCC V; 20-fold Cmax
  RCC activity V: 95.77 ± 7.64 % of control
RCC V; 30-fold Cmax
  RCC activity V: 98.65 ± 2.98 % of control
RCC V; 50-fold Cmax
  RCC activity V: 91.95 ± 5.63 % of control
[1]
  MMP measured by Rhodamine 123 at 1XCmax: 0
  MMP measured by Rhodamine 123 at 2.5XCmax: 0
  MMP measured by Rhodamine 123 at 5XCmax: 0
  MMP measured by Rhodamine 123 at 10XCmax: 0
  MMP measured by Rhodamine 123 at 20XCmax: 0
  MMP measured by Rhodamine 123 at 30XCmax: 0
  MMP measured by Rhodamine 123 at 50XCmax: 0
  MMP measured by Rhodamine 123 at 100XCmax: 0
[2]
  Swelling 1XCmax: 0
  Swelling 2.5XCmax: 0
  Swelling 5XCmax: 0
  Swelling 10XCmax: 0
  Swelling 20XCmax: 0
  Swelling 30XCmax: 0
  Swelling 50XCmax: 0
  Swelling 100XCmax: 0.19±0.03
[2]; up to 100-fold Cmax or highest testable concentration, 25 µM calcium chloride
  effect on mitochondrial swelling: significant mitochondrial swelling
[3]
  Cytochrome c release 1XCmax: 0
  Cytochrome c release 2.5XCmax: 0
  Cytochrome c release 5XCmax: 0
  Cytochrome c release 10XCmax: 0
  Cytochrome c release 20XCmax: 0
  Cytochrome c release 30XCmax: 0
  Cytochrome c release 50XCmax: 12.29±1.27 percentage of the positive control group
  Cytochrome c release 100XCmax: 24.66±1.67 percentage of the positive control group
[4]; BBW: black box warning, W&P: Warnings and Precautions
  Labeling for cardiotoxicity: W&P: QT Interval Prolongation; Bradycardia
[4]
  Potential for cardiotoxicity (based on labeling): 1
[5]; 1 = DILI positive, 0 = negative, ref product labeling
  DILI potential (based on labeling): 1
[5]; BBW: black box warning, W&P: Warnings and Precautions, ref product labeling
  Labeling for DILI: W&P: fatal DILI
[5]; W&P warnings and precautions, BBW black box warnings, ref FDA product labeling
  labeling for DILI: W&P: fatal DILI
[5]; ref FDA product labeling
  DILI potential (based on labeling): 1
[6]
  ROS measured by CM-H2DCFDA at 1XCmax: 0
  ROS measured by CM-H2DCFDA at 2.5XCmax: 0
  ROS measured by CM-H2DCFDA at 5XCmax: 0
  ROS measured by CM-H2DCFDA at 10XCmax: 0
  ROS measured by CM-H2DCFDA at 20XCmax: 1.46±0.08
  ROS measured by CM-H2DCFDA at 30XCmax: 1.75±0.32
  ROS measured by CM-H2DCFDA at 50XCmax: 2.06±0.27
  ROS measured by CM-H2DCFDA at 100XCmax: 2.74±0.18
[6]; highest tested concentrations
  effect on ROS production: significantly ROS production

## COc1cc2ncnc(Nc3ccc(F)c(Cl)c3)c2cc1OCCCN1CCOCC1 [Gefitinib]
[7]; 1XCmax
  State 3 respiration driven by succinate at 1XCmax: 0
  State 4 respiration driven by succinate at 1XCmax: 0
[7]; 2.5XCmax
  State 3 respiration driven by succinate at 2.5XCmax: 0
  State 4 respiration driven by succinate at 2.5XCmax: 0
[7]; 5XCmax
  State 3 respiration driven by succinate at 5XCmax: 0
  State 4 respiration driven by succinate at 5XCmax: 0
[7]; 10XCmax
  State 3 respiration driven by succinate at 10XCmax: 0
  State 4 respiration driven by succinate at 10XCmax: 0
[7]; 20XCmax
  State 3 respiration driven by succinate at 20XCmax: 0
  State 4 respiration driven by succinate at 20XCmax: 0
[7]; 30XCmax
  State 3 respiration driven by succinate at 30XCmax: 0
  State 4 respiration driven by succinate at 30XCmax: 0
[7]; 50XCmax
  State 3 respiration driven by succinate at 50XCmax: 0
  State 4 respiration driven by succinate at 50XCmax: 0
[7]; 100XCmax
  State 3 respiration driven by succinate at 100XCmax: 0
  State 4 respiration driven by succinate at 100XCmax: 0
RCC I
  RCC I at 10XCmax: 0
RCC II
  RCC II at 1.0XCmax: 0
  RCC II at 2.5XCmax: 0
  RCC II at 5XCmax: 0
  RCC II at 10XCmax: 0
  RCC II at 20XCmax: 0
  RCC II at 30XCmax: 0
  RCC II at 50XCmax: 0
  RCC II at 100XCmax: 0
RCC III
  RCC III at 100XCmax: 0
RCC IV
  RCC IV at 50XCmax: 0
RCC V
  RCC V at 5XCmax: 0
  RCC V at 50XCmax: 0
[1]
  MMP measured by Rhodamine 123 at 1XCmax: 0
  MMP measured by Rhodamine 123 at 2.5XCmax: 0
  MMP measured by Rhodamine 123 at 5XCmax: 0
  MMP measured by Rhodamine 123 at 10XCmax: 0
  MMP measured by Rhodamine 123 at 20XCmax: 0
  MMP measured by Rhodamine 123 at 30XCmax: 0
  MMP measured by Rhodamine 123 at 50XCmax: 0
  MMP measured by Rhodamine 123 at 100XCmax: 0
[2]
  Swelling 1XCmax: 0
  Swelling 2.5XCmax: 0
  Swelling 5XCmax: 0
  Swelling 10XCmax: 0
  Swelling 20XCmax: 0
  Swelling 30XCmax: 0
  Swelling 50XCmax: 0
  Swelling 100XCmax: 0
[3]
  Cytochrome c release 1XCmax: 0
  Cytochrome c release 2.5XCmax: 0
  Cytochrome c release 5XCmax: 0
  Cytochrome c release 10XCmax: 0
  Cytochrome c release 20XCmax: 0
  Cytochrome c release 30XCmax: 0
  Cytochrome c release 50XCmax: 0
  Cytochrome c release 100XCmax: 0
[4]
  Potential for cardiotoxicity (based on labeling): 0
[8]; human therapeutic Cmax at FDA recommended dosages, ref product labeling and drug approval packages at the official FDA website
  Cmax: 0.27 µM
[8]; read-out: Cmax at µM, therapeutic maximal blood concentration, ref product labeling
  Cmax: 0.27 µM
[8]; therapeutic maximal blood concentration, ref product labeling
  Cmax: 122 ng/mL
[6]
  ROS measured by CM-H2DCFDA at 1XCmax: 0
  ROS measured by CM-H2DCFDA at 2.5XCmax: 0
  ROS measured by CM-H2DCFDA at 5XCmax: 0
  ROS measured by CM-H2DCFDA at 10XCmax: 0
  ROS measured by CM-H2DCFDA at 20XCmax: 0
  ROS measured by CM-H2DCFDA at 30XCmax: 0
  ROS measured by CM-H2DCFDA at 50XCmax: 0
  ROS measured by CM-H2DCFDA at 100XCmax: 0
